Assay results reported in patent publication US10711004B2 (Genentech, Inc., priority 2018, dated 2020).
Like-named read-outs stand apart in the source and are kept apart here.

Biological target: human TRPA1 channel (Homo sapiens (Human), UniProt O75762)
Assay: hTRPA1 CHO Ca2+ FLIPR Tetra assay, block of cinnamaldehyde induced calcium influx
Format: cell-based
Conditions: CHO cells expressing TRPA1, Hill coefficient fixed to 1.5
In short: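 IC50 values come from fixed-Hill fits of inhibition of cinnamaldehyde-induced (about EC50 level) calcium influx measured by FLIPR Tetra. Before agonist, TRPA1-expressing CHO cells loaded with calcium indicator were exposed to compound for 10 or 90 min at room temperature in HEPES-buffered HBSS, pH 7.4, with 0.02% BSA.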

[1] = read-out: hTRPA1 IC50 (10 min), compounds incubated 10 minutes at room temperature before cinnamaldehyde agonist
[2] = read-out: hTRPA1 IC50 (90 min), compounds incubated 90 minutes at room temperature before cinnamaldehyde agonist

Sequence of human TRPA1 channel (O75762 whole entry): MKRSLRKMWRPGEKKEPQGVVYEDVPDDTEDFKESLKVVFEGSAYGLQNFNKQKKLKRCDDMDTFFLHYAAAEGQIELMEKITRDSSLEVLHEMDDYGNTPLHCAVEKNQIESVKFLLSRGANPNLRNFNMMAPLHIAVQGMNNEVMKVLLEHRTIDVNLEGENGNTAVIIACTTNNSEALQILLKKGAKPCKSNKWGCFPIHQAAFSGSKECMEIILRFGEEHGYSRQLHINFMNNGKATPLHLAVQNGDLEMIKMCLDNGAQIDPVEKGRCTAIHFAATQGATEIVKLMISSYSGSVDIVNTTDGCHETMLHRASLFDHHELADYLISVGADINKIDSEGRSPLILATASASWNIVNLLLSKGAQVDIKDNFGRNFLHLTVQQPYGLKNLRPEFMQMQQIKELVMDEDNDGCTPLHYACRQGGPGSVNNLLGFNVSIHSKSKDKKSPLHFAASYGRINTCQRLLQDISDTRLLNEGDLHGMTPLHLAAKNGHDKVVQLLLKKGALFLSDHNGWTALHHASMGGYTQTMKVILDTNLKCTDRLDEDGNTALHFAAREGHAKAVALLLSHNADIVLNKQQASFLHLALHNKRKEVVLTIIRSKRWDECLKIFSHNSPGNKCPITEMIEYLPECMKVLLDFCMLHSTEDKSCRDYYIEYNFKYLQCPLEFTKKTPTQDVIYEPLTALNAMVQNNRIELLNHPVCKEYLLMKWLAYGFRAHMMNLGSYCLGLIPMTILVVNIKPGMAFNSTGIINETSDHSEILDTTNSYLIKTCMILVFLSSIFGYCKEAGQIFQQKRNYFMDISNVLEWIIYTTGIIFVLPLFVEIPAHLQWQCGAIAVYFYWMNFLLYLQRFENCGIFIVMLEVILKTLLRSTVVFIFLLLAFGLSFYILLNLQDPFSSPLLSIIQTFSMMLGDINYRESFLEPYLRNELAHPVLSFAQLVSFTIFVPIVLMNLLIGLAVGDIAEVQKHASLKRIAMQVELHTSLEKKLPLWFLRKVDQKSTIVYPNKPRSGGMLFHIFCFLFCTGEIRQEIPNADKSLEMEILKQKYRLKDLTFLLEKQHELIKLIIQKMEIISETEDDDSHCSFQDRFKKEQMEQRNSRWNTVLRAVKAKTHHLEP

IC50 [1] [nM] | IC50 [2] [nM] | IC50 (compounds incubated 10 minutes at room temperature before cinnamaldehyde agonist) [nM] | Compound
460 | 100 |  | Cn1cnc2ncn(Cc3nc([C@H]4[C@@H]5CN(c6ccnc(Cl)c6)C[C@@H]54)no3)c(=O)c21 [Example Compound 146, 1-((3-((1R,5S,6r)-3-(2-chloropyridin-4-yl)-3-azabicyclo[3.1.0]hexan-6-yl)-1,2,4-oxadiazol-5-yl)methyl)-7-methyl-1,7-dihydro-6H-purin-6-one]
11.3 | 1.5 |  | Cc1cc(N)nc2ncn(Cc3nc([C@H]4[C@@H]5C=C(c6ccccc6)C[C@@H]54)no3)c(=O)c12 [Example Compound 238, 7-amino-5-methyl-3-[[3-[(1S,5S,6R)-3-phenyl-6-bicyclo[3.1.0]hex-2-enyl]-1,2,4-oxadiazol-5-yl]methyl]pyrido[2,3-d]pyrimidin-4-one]
15.8 | 6.5 |  | Cn1c(Cl)nc2ncn(Cc3nc([C@@H]4[C@H]5C=C(c6ccccc6)C[C@H]54)no3)c(=O)c21 [Example Compound 263, 8-chloro-7-methyl-1-[[3-[(1R,5R,6S)-3-phenyl-6-bicyclo[3.1.0]hex-2-enyl]-1,2,4-oxadiazol-5-yl]methyl]purin-6-one]
 |  | 94.3 | Cc1cncc2ncn(Cc3nc([C@H]4[C@@H]5Cc6ccccc6[C@@H]54)no3)c(=O)c12 (stereo in doubt) [Example Compound 20, 5-methyl-3-[[3-[rac-(1S,1aS,6aR)-1,1a,6,6a-tetrahydrocyclopropa[a]inden-1-yl]-1,2,4-oxadiazol-5-yl]methyl]pyrido[3,4-d]pyrimidin-4-one]
